Results: PubChem BioAssay AID256 (DTP/NCI, 2004)
“And” between values parts separate entries of the source, which are not always exact repeats. Equal entries are not always repeated. Toxic doses and inconclusive results are not listed.

Tested on: CD2F1 mice, L1210 leukemia ip, survival T/C
Assay: NCI In Vivo Anticancer Drug Screen. Data for tumor model L1210 Leukemia (intraperitoneal) in CD2F1 (CDF1) mice
Conditions: higher = longer survival
Summary of the method: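 Mice carrying a transplanted tumor received test compound or vehicle alone. The value is the measurement in the treated group divided by that in the vehicle-treated control group.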

[1] = endpoint: mean survival time, dose: 75.0 mg/kg/injection, schedule: Q01DX001 (ip), vehicle: saline
[2] = endpoint: mean survival time, dose: 150.0 mg/kg/injection, schedule: Q01DX001 (ip), vehicle: saline
[3] = endpoint: mean survival time, dose: 300.0 mg/kg/injection, schedule: Q01DX001 (ip), vehicle: saline
[4] = endpoint: mean survival time, dose: 100.0 mg/kg/injection, schedule: Q01DX009 (ip), vehicle: saline with Tween-80
[5] = endpoint: mean survival time, dose: 100.0 mg/kg/injection, schedule: Q04DX003 (ip), vehicle: saline with Tween-80
[6] = endpoint: mean survival time, dose: 200.0 mg/kg/injection, schedule: Q01DX009 (ip), vehicle: saline with Tween-80
[7] = endpoint: mean survival time, dose: 200.0 mg/kg/injection, schedule: Q04DX003 (ip), vehicle: saline with Tween-80
[8] = endpoint: mean survival time, dose: 400.0 mg/kg/injection, schedule: Q01DX009 (ip), vehicle: saline with Tween-80
[9] = endpoint: mean survival time, dose: 400.0 mg/kg/injection, schedule: Q04DX003 (ip), vehicle: saline with Tween-80

SMILES: CCOC(=O)C(CC)CO (centres undefined)
- T/C (endpoint: mean survival time, dose: 100.0 mg/kg/injection, schedule: Q04DX003 (ip), vehicle: saline): 105 % of control
- T/C (endpoint: mean survival time, dose: 200.0 mg/kg/injection, schedule: Q04DX003 (ip), vehicle: saline): 103 % of control
- T/C (endpoint: mean survival time, dose: 400.0 mg/kg/injection, schedule: Q04DX003 (ip), vehicle: saline): 103 % of control

SMILES: CN1CCN(CC(=O)N2c3ccccc3Sc3cc4ccccc4cc32)CC1
- T/C [1]: 101 % of control
- T/C [2]: 108 % of control
- T/C [3]: 96 % of control

SMILES: O=C(O)CCCCCc1ccccc1
- T/C [4]: 96 % of control
- T/C [5]: 102 % of control
- T/C [6]: 95 % of control
- T/C [7]: 91 % of control
- T/C [8]: 101 % of control
- T/C [9]: 101 % of control

SMILES: [CH3][Sn]1([CH3])[O]C2C(CO)OC(n3ccc(N)nc3=O)C2[O]1 (centres undefined)
- T/C (endpoint: mean survival time, dose: 12.5 mg/kg/injection, schedule: Q01DX005 (ip), vehicle: other): 103 % of control
- T/C (endpoint: mean survival time, dose: 25.0 mg/kg/injection, schedule: Q01DX005 (ip), vehicle: other): 92 % of control
- T/C (endpoint: mean survival time, dose: 50.0 mg/kg/injection, schedule: Q01DX005 (ip), vehicle: other): 106 % of control

SMILES: O=S(=O)(O)C1=CC(=N\Cl)/C=CC/1=N/Cl
- T/C (endpoint: median survival time, dose: 50.0 mg/kg/injection, schedule: Q01DX009 (ip), vehicle: saline with Tween-80): 110 % of control
- T/C (endpoint: median survival time, dose: 100.0 mg/kg/injection, schedule: Q01DX009 (ip), vehicle: saline with Tween-80): 119 % of control
- T/C (endpoint: median survival time, dose: 200.0 mg/kg/injection, schedule: Q01DX009 (ip), vehicle: saline with Tween-80): 108 % of control
- T/C (endpoint: median survival time, dose: 400.0 mg/kg/injection, schedule: Q01DX009 (ip), vehicle: saline with Tween-80): 120 % of control

SMILES: COc1ccc(Cl)cc1C(c1cc(Cl)ccc1OC)C(Cl)(Cl)Cl
- T/C [4]: 97 % of control
- T/C [5]: 103 % of control
- T/C [6]: 109 % of control
- T/C [7]: 103 % of control
- T/C [8]: 104 % of control
- T/C [9]: 101 % of control

SMILES: O=c1[nH]c(=O)n(C2CC(O)C(CO)O2)cc1-c1ccccc1 (centres undefined)
- T/C (endpoint: mean survival time, dose: 12.5 mg/kg/injection, schedule: Q01DX005 (ip), vehicle: distilled water + Tween-80): 98 % of control
- T/C (endpoint: mean survival time, dose: 25.0 mg/kg/injection, schedule: Q01DX005 (ip), vehicle: distilled water + Tween-80): 95 % of control
- T/C (endpoint: mean survival time, dose: 50.0 mg/kg/injection, schedule: Q01DX005 (ip), vehicle: distilled water + Tween-80): 98 % of control
- T/C (endpoint: mean survival time, dose: 100.0 mg/kg/injection, schedule: Q01DX005 (ip), vehicle: distilled water + Tween-80): 95 % of control
- T/C (endpoint: mean survival time, dose: 200.0 mg/kg/injection, schedule: Q01DX005 (ip), vehicle: distilled water + Tween-80): 98 % of control

SMILES: CC(=O)NC(C=O)C(O)C1OC(c2ccccc2)OCC1O (centres undefined)
- T/C (endpoint: mean survival time, dose: 100.0 mg/kg/injection, schedule: Q01DX001 (ip), vehicle: saline with Tween-80): 97 % of control
- T/C [4]: 95 % of control
- T/C (endpoint: mean survival time, dose: 200.0 mg/kg/injection, schedule: Q01DX001 (ip), vehicle: saline with Tween-80): 97 % of control
- T/C [6]: 98 % of control
- T/C (endpoint: mean survival time, dose: 400.0 mg/kg/injection, schedule: Q01DX001 (ip), vehicle: saline with Tween-80): 94 % of control
- T/C [8]: 92 % of control

SMILES: CCOC1(OCC)C2C=CC1C1C(=O)OC(=O)C12 (centres undefined)
- T/C [1]: 103 % of control
- T/C [2]: 108 % of control
- T/C [3]: 102 % of control

SMILES: CC(=O)[c-]1[c-][c-][c-][c-]1.[Fe+2].[c-]1[c-][c-][cH-][c-]1
- T/C (endpoint: mean survival time, dose: 200.0 mg/kg/injection, schedule: Q01DX001 (ip), vehicle: saline): 102 % of control
- T/C (endpoint: mean survival time, dose: 400.0 mg/kg/injection, schedule: Q01DX001 (ip), vehicle: saline): 100 % of control

SMILES: C[C@H](N)C(=O)N[C@@H]1[C@H]2C(=C(O)C[C@@H](O)[C@@H]2O)C(=O)O[C@]1(C)C(Cl)Cl
- T/C (endpoint: median survival time, dose: 0.07 mg/kg/injection, schedule: Q03HX024 (ip), vehicle: saline): 106 % of control
- T/C (endpoint: median survival time, dose: 0.09 mg/kg/injection, schedule: Q01DX009 (ip), vehicle: saline): 106 % of control and 109 % of control
- T/C (endpoint: median survival time, dose: 0.14 mg/kg/injection, schedule: Q03HX024 (ip), vehicle: saline): 120 % of control
- T/C (endpoint: median survival time, dose: 0.18 mg/kg/injection, schedule: Q01DX009 (ip), vehicle: saline): 114 % of control and 118 % of control
- T/C (endpoint: median survival time, dose: 0.19 mg/kg/injection, schedule: Q01DX009 (ip), vehicle: Klucel (hydroxypropylcellulose) (HPC)): 105 % of control and 110 % of control and 112 % of control
- T/C (endpoint: median survival time, dose: 0.21 mg/kg/injection, schedule: Q03HX008 (ip), vehicle: saline): 103 % of control
- T/C (endpoint: median survival time, dose: 0.28 mg/kg/injection, schedule: Q03HX024 (ip), vehicle: saline): 124 % of control
- T/C (endpoint: median survival time, dose: 0.34 mg/kg/injection, schedule: Q01DX005 (ip), vehicle: saline): 116 % of control
- T/C (endpoint: median survival time, dose: 0.34 mg/kg/injection, schedule: Q01DX005 (iv), vehicle: saline): 98 % of control
- T/C (endpoint: median survival time, dose: 0.37 mg/kg/injection, schedule: Q01DX009 (ip), vehicle: Klucel (hydroxypropylcellulose) (HPC)): 120 % of control
- T/C (endpoint: median survival time, dose: 0.37 mg/kg/injection, schedule: Q01DX009 (ip), vehicle: saline): 124 % of control
- T/C (endpoint: median survival time, dose: 0.37 mg/kg/injection, schedule: Q01DX009 (ip), vehicle: water): 118 % of control
- T/C (endpoint: median survival time, dose: 0.38 mg/kg/injection, schedule: Q01DX009 (ip), vehicle: Klucel (hydroxypropylcellulose) (HPC)): 117 % of control and 123 % of control and 111 % of control
- T/C (endpoint: median survival time, dose: 0.42 mg/kg/injection, schedule: Q03HX008 (ip), vehicle: saline): 116 % of control
- T/C (endpoint: median survival time, dose: 0.56 mg/kg/injection, schedule: Q04DX003 (ip), vehicle: saline): 113 % of control
- T/C (endpoint: median survival time, dose: 0.68 mg/kg/injection, schedule: Q01DX005 (iv), vehicle: saline): 109 % of control
- T/C (endpoint: median survival time, dose: 0.75 mg/kg/injection, schedule: Q01DX009 (ip), vehicle: saline): 150 % of control and 152 % of control and 155 % of control
- T/C (endpoint: median survival time, dose: 1.13 mg/kg/injection, schedule: Q04DX003 (ip), vehicle: saline): 116 % of control
- T/C (endpoint: median survival time, dose: 1.5 mg/kg/injection, schedule: Q01DX009 (ip), vehicle: saline): 155 % of control and 176 % of control and 190 % of control
- T/C (endpoint: median survival time, dose: 1.5 mg/kg/injection, schedule: Q01DX009 (ip), vehicle: water): 153 % of control
- T/C (endpoint: median survival time, dose: 1.69 mg/kg/injection, schedule: Q01DX001 (ip), vehicle: saline): 112 % of control
- T/C (endpoint: median survival time, dose: 1.69 mg/kg/injection, schedule: Q01DX001 (iv), vehicle: saline): 101 % of control
- T/C (endpoint: median survival time, dose: 2.25 mg/kg/injection, schedule: Q04DX003 (ip), vehicle: saline): 124 % of control
- T/C (endpoint: median survival time, dose: 2.7 mg/kg/injection, schedule: Q01DX005 (ip), vehicle: saline): 167 % of control
- T/C (endpoint: median survival time, dose: 3.0 mg/kg/injection, schedule: Q01DX009 (oral), vehicle: saline): 100 % of control
- T/C (endpoint: median survival time, dose: 3.38 mg/kg/injection, schedule: Q01DX001 (ip), vehicle: saline): 116 % of control
- T/C (endpoint: median survival time, dose: 3.38 mg/kg/injection, schedule: Q01DX001 (iv), vehicle: saline): 113 % of control
- T/C (endpoint: median survival time, dose: 6.0 mg/kg/injection, schedule: Q01DX009 (ip), vehicle: water): 91 % of control
- T/C (endpoint: median survival time, dose: 6.0 mg/kg/injection, schedule: Q01DX009 (oral), vehicle: saline): 97 % of control
- T/C (endpoint: median survival time, dose: 12.0 mg/kg/injection, schedule: Q01DX009 (oral), vehicle: saline): 100 % of control
- T/C (endpoint: median survival time, dose: 24.0 mg/kg/injection, schedule: Q01DX009 (oral), vehicle: saline): 112 % of control

SMILES: CC(C)(CCC(=O)O)c1cccc(Cl)c1
- T/C (endpoint: mean survival time, dose: 50.0 mg/kg/injection, schedule: Q01DX009 (ip), vehicle: saline with Tween-80): 96 % of control
- T/C [4]: 93 % of control

SMILES: Nc1ccn(C2OC(COP(=O)(O)Oc3ccccc3)C(O)C2O)c(=O)n1 (centres undefined)
- T/C (endpoint: mean survival time, dose: 12.5 mg/kg/injection, schedule: Q01DX009 (ip), vehicle: suspension in saline): 162 % of control
- T/C (endpoint: mean survival time, dose: 25.0 mg/kg/injection, schedule: Q01DX009 (ip), vehicle: suspension in saline): 194 % of control
- T/C (endpoint: mean survival time, dose: 50.0 mg/kg/injection, schedule: Q01DX009 (ip), vehicle: suspension in saline): 202 % of control
- T/C (endpoint: mean survival time, dose: 100.0 mg/kg/injection, schedule: Q01DX009 (ip), vehicle: suspension in saline): 223 % of control

SMILES: Nc1ccn(C2CC3OCC3O2)c(=O)n1 (centres undefined)
- T/C (endpoint: median survival time, dose: 12.5 mg/kg/injection, schedule: Q01DX005 (ip), vehicle: saline): 97 % of control
- T/C (endpoint: median survival time, dose: 25.0 mg/kg/injection, schedule: Q01DX005 (ip), vehicle: saline): 105 % of control
- T/C (endpoint: median survival time, dose: 50.0 mg/kg/injection, schedule: Q01DX005 (ip), vehicle: saline): 103 % of control
- T/C (endpoint: median survival time, dose: 100.0 mg/kg/injection, schedule: Q01DX005 (ip), vehicle: saline): 110 % of control
- T/C (endpoint: median survival time, dose: 200.0 mg/kg/injection, schedule: Q01DX005 (ip), vehicle: saline): 104 % of control

SMILES: c1cc2c3c(c1)-c1nc4ccccc4cc1CN3CCC2
- T/C [5]: 98 % of control
- T/C [7]: 101 % of control
- T/C [9]: 97 % of control

SMILES: N#C/C=C/C#N
- T/C (endpoint: mean survival time, dose: 0.15 mg/kg/injection, schedule: Q01DX009 (ip), vehicle: saline): 105 % of control
- T/C (endpoint: mean survival time, dose: 0.3 mg/kg/injection, schedule: Q01DX009 (ip), vehicle: saline): 102 % of control
- T/C (endpoint: mean survival time, dose: 0.6 mg/kg/injection, schedule: Q01DX009 (ip), vehicle: saline): 102 % of control
